Columns and labels:
SST1 = SST1 (Homo sapiens, UniProt P30872); conditions: cited from earlier work
[1] = system: extracardiac uptake of radiotracer; assay: Myocardial perfusion imaging with periprocedural somatostatin analog (examples); format: in vivo
SST3 = SST3 (Homo sapiens, UniProt P32745); conditions: cited from earlier work
SST4 = SST4 (Homo sapiens, UniProt P31391); conditions: cited from earlier work
SST2 = SST2 (Homo sapiens, UniProt P30874); conditions: cited from earlier work
[2] = system: gastric mucosal blood flow; conditions: fifteen minutes after a single bolus injection; laser Doppler flowmeter; adapted from Surg Endosc (2003) 17: 1570-1572; cited from earlier work
portal vein flow = conditions: infusion at various infusion concentrations; adapted from Digestion 1999; 60:132-140; cited from earlier work
[3] = typical administration at rest; Cardiolite Product Insert; cited from earlier work
[4] = system: abdominal radiotracer uptake; conditions: literature, cited from earlier work; for obscuring effect of abdominal radiotracer uptake: myocardial perfusion imaging

Chain of SST1 (P30872 whole entry, the tested form may be a part): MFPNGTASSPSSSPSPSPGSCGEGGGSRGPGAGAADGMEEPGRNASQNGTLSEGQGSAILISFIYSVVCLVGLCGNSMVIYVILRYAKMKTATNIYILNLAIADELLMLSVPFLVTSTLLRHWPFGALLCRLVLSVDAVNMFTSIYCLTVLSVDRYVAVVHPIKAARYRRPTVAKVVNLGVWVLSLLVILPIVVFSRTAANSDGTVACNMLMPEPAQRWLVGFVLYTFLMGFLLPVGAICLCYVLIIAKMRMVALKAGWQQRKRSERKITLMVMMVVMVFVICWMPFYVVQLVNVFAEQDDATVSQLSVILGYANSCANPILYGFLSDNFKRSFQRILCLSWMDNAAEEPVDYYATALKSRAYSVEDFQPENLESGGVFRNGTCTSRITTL
Chain of SST3 (P32745 whole entry): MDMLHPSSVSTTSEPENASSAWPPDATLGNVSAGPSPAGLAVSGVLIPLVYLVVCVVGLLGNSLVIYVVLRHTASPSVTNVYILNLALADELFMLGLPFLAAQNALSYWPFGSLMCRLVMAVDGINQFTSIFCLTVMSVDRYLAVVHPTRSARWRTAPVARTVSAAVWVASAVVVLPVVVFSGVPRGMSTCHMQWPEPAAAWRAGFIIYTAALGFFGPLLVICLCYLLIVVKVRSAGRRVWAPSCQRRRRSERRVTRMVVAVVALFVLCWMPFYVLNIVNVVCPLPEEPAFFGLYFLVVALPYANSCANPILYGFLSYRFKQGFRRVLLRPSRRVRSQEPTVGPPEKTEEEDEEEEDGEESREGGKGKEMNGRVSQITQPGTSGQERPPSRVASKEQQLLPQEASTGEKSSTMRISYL
Chain of SST4 (P31391 whole entry): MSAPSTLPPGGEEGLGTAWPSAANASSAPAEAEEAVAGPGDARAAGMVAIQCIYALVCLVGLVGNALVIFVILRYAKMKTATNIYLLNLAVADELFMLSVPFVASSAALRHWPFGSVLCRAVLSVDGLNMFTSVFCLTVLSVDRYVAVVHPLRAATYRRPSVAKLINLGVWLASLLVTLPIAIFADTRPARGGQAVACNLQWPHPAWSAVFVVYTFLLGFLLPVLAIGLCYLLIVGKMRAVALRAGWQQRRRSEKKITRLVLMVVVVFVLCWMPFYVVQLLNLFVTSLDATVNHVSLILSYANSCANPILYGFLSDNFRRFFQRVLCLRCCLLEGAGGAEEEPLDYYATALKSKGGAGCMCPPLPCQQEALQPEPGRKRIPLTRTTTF
Chain of SST2 (P30874 whole entry): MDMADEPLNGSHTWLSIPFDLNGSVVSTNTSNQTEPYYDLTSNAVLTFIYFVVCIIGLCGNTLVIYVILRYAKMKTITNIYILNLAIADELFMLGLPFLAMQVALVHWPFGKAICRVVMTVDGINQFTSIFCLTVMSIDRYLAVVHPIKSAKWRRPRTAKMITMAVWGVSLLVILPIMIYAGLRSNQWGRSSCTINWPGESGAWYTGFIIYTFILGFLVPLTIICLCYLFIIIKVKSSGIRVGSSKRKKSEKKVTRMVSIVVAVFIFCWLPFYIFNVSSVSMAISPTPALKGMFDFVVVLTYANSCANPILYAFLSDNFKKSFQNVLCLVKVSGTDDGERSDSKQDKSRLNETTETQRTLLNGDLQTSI

Molecule | affinity for SST1 (in words) (SST1) | affinity for SST3 (in words) (SST3) | affinity for SST4 (in words) (SST4) | affinity for SST2 (in words) (SST2) | obscuring effect of abdominal radiotracer uptake [4] | other results
C[C@@H](O)[C@@H]1NC(=O)[C@H](CCCCN)NC(=O)[C@@H](Cc2c[nH]c3ccccc23)NC(=O)[C@H](Cc2ccccc2)NC(=O)[C@@H](NC(=O)[C@H](N)Cc2ccccc2)CSSC[C@@H](C(=O)N[C@H](CO)[C@@H](C)O)NC1=O [Octreotide, octreotide] | virtually no affinity | displaying affinity | virtually no affinity | displaying affinity |  | extracardiac uptake of radiotracer ([1]; 100 mcg bolus fifteen minutes prior to radiotracer, then 100 mcg per hour constant infusion, adenosine stress): reduced; extracardiac uptake of radiotracer ([1]; 100 mcg bolus ten minutes prior to radiotracer, second 100 mcg bolus ten minutes prior to adenosine stress): reduced; reduction in gastric mucosal blood flow [2]: 50%; portal vein flow (portal vein flow): decrease
[C-]#[N+]CC(C)(C)OC.[C-]#[N+]CC(C)(C)OC.[C-]#[N+]CC(C)(C)OC.[C-]#[N+]CC(C)(C)OC.[C-]#[N+]CC(C)(C)OC.[C-]#[N+]CC(C)(C)OC.[Tc] [Tc-99m-setsamibi] |  |  |  |  |  | total dose absorbed into the liver [3]: 19%; total dose taken into the heart [3]: 1.2%
Cn1c(=O)c2[nH]cnc2n(C)c1=O [aminophyllin] |  |  |  |  |  | artifacts in images taken after the dipyridamole injection ([4]; used to counter dipyridamole stress): does not prevent artifacts
CC(C)[C@@H]1NC(=O)[C@H](CCCCN)NC(=O)[C@@H](Cc2c[nH]c3ccccc23)NC(=O)[C@H](Cc2ccc(O)cc2)NC(=O)[C@@H](NC(=O)[C@H](N)Cc2ccc3ccccc3c2)CSSC[C@@H](C(=O)N[C@H](C(N)=O)[C@@H](C)O)NC1=O [lanreotide] | virtually no affinity | displaying affinity | virtually no affinity | displaying affinity |  | extracardiac uptake of radiotracer ([1]; 200 mcg bolus thirty minutes prior to radiotracer, then 200 mcg per hour infusion for rest injections, treadmill exercise stress): reduced
CCN(CC)CCNC(=O)c1cc(Cl)c(N)cc1OC [metoclopromide] |  |  |  |  | did not significantly decrease | 
cholecystokinin (peptide, UniProt P06307 21-115, looked up, Cholecystokinin, gastric stimulant) Cholecystokinin: QPVPPADPAGSGLQRAEEAPRRQLRVSQRTDGESRAHLGALLARYIQQARKAPSGRMSIVKNLQNLDPSHRISDRDYMGWMDFGRRSAEEYEYPS |  |  |  |  | without success | 

Reference: patent US20100196264A1, “USE OF SOMATOSTATIN ANALOGS IN MYOCARDIAL PERFUSION IMAGING” (THE BRIGHAM AND WOMEN'S HOSPITAL, INC., priority 2007, published 2010)
